According to ChEMBL document CHEMBL1159238, “Brevitaxin, a new diterpenolignan from the bark of Taxus brevifolia” (1995):
Calls of active or inactive are those of the source. The rule behind the calls is not given here.

How the values were obtained:
[1] = test system: NCI60; assay: Cytotoxicity against human NCI60 cells; type: functional, cell-based
[2] = test system: DU-145; assay: Cytotoxicity against human DU145 cells; type: functional; details: read-out: ED50 (the source's name)

COc1cc([C@@H]2Oc3c(C(C)C)cc4c(=O)cc5c(cc4c3O[C@H]2CO)C=CC(=O)C5(C)C)ccc1O [BREVITAXIN]
Activity [1]: Active
EC50 [2]: 6.8 µM
